As usually defined, the IC50 is the point on the concentration scale where inhibition reaches its midpoint.

Data set [1] is described as follows: plasma protein binding, rat. The data set is classed as in vitro ADME. On the procedure: (§1) In embodiments, the apilimod compound for use in the compositions and methods of the invention is the free base or dimesylate salt form, MW 610.7 (dimesylate salt); tPSA 83.1; pKa 5.39 (±0.03), 4.54 (±0.27); HBD 1. […] In embodiments, the apilimod compound for use in the compositions and methods of the invention is an active metabolite of apilimod. Six primary metabolites were identified in rat and human microsomal and hepatocyte stability studies. […] Tmax generally occurred within 1 or 2 hours after the oral dose, consistent with the […] of this compound from the circulation. […] The primary metabolites are short-lived in circulation. Both apilimod free base and the dimesylate salt are highly bound (>99%) to rat, dog and human plasma proteins.

Data set [2] in a line: plasma protein binding, dog. The data set is classed as in vitro ADME. As to conditions: read-out: bound to plasma proteins. The protocol: as §1
The next data set concerns NPC1 fibroblasts. Description: HexB release lysosome exocytosis assay. It counts as cell-based, human. As to conditions: 24 hours treatment; FIG. 3. On the procedure:
NPC1 mutant patient skin fibroblasts have been used as a robust cellular model of NPC1 disease (Chen 2010, Xu M et al 2012, Xu M et al 2014) and these cells display a number of NPC-related defects including intracellular accumulation of cholesterol other lipids.
FIG. 3: the rate of lysosome exocytosis can be monitored by the measurement of the release of lysosomal proteins such as Hexosaminidase Subunit Beta(HexB). In FIG. 3, NPC1 fibroblasts were treated with apilimod for 24 hours, the HexB release lysosome exocytosis assay was performed as previously described (Xu et al 2012). The rate of HexB release from NPC1 was increased by apilimod treatment providing evidence for an increased rate of lysosome exocytosis likely leading to cholesterol lowering in NPC1 cells.
Shown in the figure are fluorescence microscopy images of the NPC1 cells treated with 0, 78, 156, and 625 nM apilimod. […] In FIG. 3, apilimod treatment of NPC1 fibroblasts can enhance the rate of lysosome exocytosis as one of the mechanisms for cells to clear lysosome storage of cholesterol and lipid accumulations in NPC.

Another data set has as its target CYP3A4 (Homo sapiens, UniProt P08684). Description: reaction phenotyping studies, CYP3A4. It counts as in vitro ADME. The protocol: as §1
The test system of the next data set is osteoclast formation. Particulars: in vitro assay; from WO 2005/000404; read-out: inhibitory activity against osteoclast formation, IC50; cited from earlier work.
The nature of data set [3]: plasma protein binding, human. The data set is classed as in vitro ADME. Particulars: read-out: bound to plasma proteins. The protocol:
as §1

Sequence of CYP3A4 (P08684 whole entry): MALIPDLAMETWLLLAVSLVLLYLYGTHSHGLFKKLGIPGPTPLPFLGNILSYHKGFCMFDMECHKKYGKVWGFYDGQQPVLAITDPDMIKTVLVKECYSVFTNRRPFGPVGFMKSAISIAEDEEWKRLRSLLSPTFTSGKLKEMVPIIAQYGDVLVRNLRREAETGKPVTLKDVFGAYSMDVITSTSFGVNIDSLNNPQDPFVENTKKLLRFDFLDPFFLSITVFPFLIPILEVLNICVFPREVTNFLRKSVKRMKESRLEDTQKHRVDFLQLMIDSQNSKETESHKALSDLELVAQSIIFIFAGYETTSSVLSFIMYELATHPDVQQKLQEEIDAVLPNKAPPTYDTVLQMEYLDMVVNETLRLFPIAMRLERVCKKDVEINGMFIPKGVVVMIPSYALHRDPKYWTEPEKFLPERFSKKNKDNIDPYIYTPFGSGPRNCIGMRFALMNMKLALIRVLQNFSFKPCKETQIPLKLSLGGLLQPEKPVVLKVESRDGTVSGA

For the molecule `Cc1cccc(/C=N/Nc2cc(N3CCOCC3)nc(OCCc3ccccn3)n2)c1` [apilimod], the fraction unbound in data set [1], in data set [2] and in data set [3] was less than 0.01 throughout. The “rate of HexB release (lysosome exocytosis)” value with NPC1 fibroblasts is on record as “increased”. The “contribution of CYP3A4 to metabolism” value on CYP3A4 is listed as “contribute to metabolism”. The half-maximal inhibitory concentration (IC50) in the data set on osteoclast formation is 15 nM.
